One block for each molecule: values may come before it. Activity calls are given as the source filed them. The calls are words filed in the database; no cut-off is given here.
Tests used:
H929R [1] = experiment: Inhibition of cell growth in human H929R cells at 10 uM incubated for 48 hrs by CCK-8 assay; type: functional, cell-based
[2] = target: T1, Pachytene checkpoint protein 2 homolog (Homo sapiens, UniProt Q15645); experiment: Binding affinity to TRIP13 (unknown origin) assessed as dissociation constant by SPR analysis
T1 sequence (Q15645 whole entry): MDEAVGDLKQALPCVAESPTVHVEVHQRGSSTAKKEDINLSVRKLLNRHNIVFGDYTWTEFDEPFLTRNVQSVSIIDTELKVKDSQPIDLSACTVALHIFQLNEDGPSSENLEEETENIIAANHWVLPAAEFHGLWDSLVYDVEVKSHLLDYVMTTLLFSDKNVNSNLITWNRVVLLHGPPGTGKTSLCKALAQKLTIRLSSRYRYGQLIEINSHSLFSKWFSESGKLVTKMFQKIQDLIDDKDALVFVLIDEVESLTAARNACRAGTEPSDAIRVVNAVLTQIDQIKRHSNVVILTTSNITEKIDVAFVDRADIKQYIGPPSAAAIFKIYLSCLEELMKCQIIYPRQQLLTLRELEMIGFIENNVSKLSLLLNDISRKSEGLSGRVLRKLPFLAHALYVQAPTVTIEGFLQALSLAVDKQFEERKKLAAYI

[3] = Inhibition of cell growth in human H929R cells at 10 uM incubated for 48 hrs by CCK-8 assay relative to control; type: functional
[4] = Toxicity in immunodeficient nude mouse xenografted with human H929R cells assessed as reduction in body weight at 15 mg/kg, ip administered once daily for 16 days; type: organism-based; settings: in vivo, 384 h, time 16 day
[5] = target: T2, Pachytene checkpoint protein 2 homolog (Homo sapiens) (UniProt Q15645); experiment: Binding affinity to TRIP13 (unknown origin) by SPR analysis
T2 sequence (whole entry): T1 sequence (Q15645 whole entry)

H929R [6] = experiment: Antitumor activity against human H929R cells xenografted in immunodeficient nude mouse assessed as reduction in tumor growth at 15 mg/kg, ip administered once daily for 16 days by vernier caliper method; type: functional, organism-based; settings: time 16.0 day
[7] = Inhibition of cell growth in human H929R cells incubated for 48 hrs by CCK-8 assay
[8] = Inhibition of cell growth in human OCI-My5 cells incubated for 48 hrs by CCK-8 assay; settings: OCI-My5, 48 h
[9] = Inhibition of cell growth in human ARP-1 cells incubated for 48 hrs by CCK-8 assay; settings: ARP-1, 48 h
[10] = Toxicity in immunodeficient nude mouse xenografted with human H929R cells assessed as reduction in body weight at 25 mg/kg, ip administered once daily for 16 days; type: organism-based; settings: in vivo, 384 h, time 16 day
[11] = Acute toxicity in mouse assessed as kidney injury at 50 mg/kg, ip; type: organism-based; settings: in vivo
[12] = Acute toxicity in mouse assessed as liver injury at 50 mg/kg, ip; type: organism-based; settings: in vivo
[13] = Acute toxicity in mouse assessed as reduction in spontaneous activities at 50 mg/kg, ip; type: organism-based; settings: in vivo
[14] = Acute toxicity in mouse assessed as heart injury at 50 mg/kg, ip; type: organism-based; settings: in vivo
[15] = Inhibition of cell growth in human CD138-positive cells at 20 uM incubated for 48 hrs by CCK-8 assay relative to control; type: functional
[16] = Acute toxicity in mouse assessed as abnormal behaviors at 50 mg/kg, ip; type: organism-based; settings: in vivo

Compound: CN1CCN(C(=O)C2CCCCC2C(=O)Nc2ccc(Oc3ccncc3)cc2)CC1 (stereo unspecified)
- inhibition (H929R [1]): Active

- Kd [2]: 149 µM
Compound: O=C1C2C3C=C(Br)C(O3)C2C(=O)N1c1ccc(Cc2ccncc2)cc1 (stereo unspecified)
- inhibition at 10 µM [3]: 51.7%

Compound: O=C(NCCCO)C1CCCCC1C(=O)Nc1ccc(Cc2ccncc2)cc1 (stereo unspecified)
- inhibition at 10 µM [3]: 6.9%

Compound: C[C@@]12C(=O)N(c3ccc(Cc4ccncc4)cc3)C(=O)[C@]1(C)[C@H]1CC[C@@H]2O1.Cl
- Activity [4]: Non-Toxic

Compound: O=C1C2C3C=C(Br)C(O3)C2C(=O)N1c1ccc(Oc2ccncc2)cc1 (stereo unspecified)
- inhibition (H929R [1]): Active

Compound: O=C(NCCCO)C1C2C=CC(O2)C1C(=O)Nc1ccc(Cc2ccncc2)cc1 (stereo unspecified)
- inhibition at 10 µM [3]: 21.2%

- Activity [5]: inactive
Compound: O=C1C2C3CCC(C3)C2C(=O)N1c1ccc(Cc2ccncc2)cc1 (stereo unspecified)
- inhibition at 10 µM [3]: 41.4%

Compound: CN1CCN(C(=O)C2C3C=C(Br)C(O3)C2C(=O)Nc2ccc(Cc3ccncc3)cc2)CC1 (stereo unspecified)
- inhibition at 10 µM [3]: 43.1%

Compound: C[C@@]12C(=O)N(c3ccc(Cc4ccncc4)cc3)C(=O)[C@]1(C)[C@H]1CC[C@@H]2O1 [listing 1 of 2 here]
- Activity (H929R [6]): Active

Compound: O=C1C2C3C=CC(C4CC34)C2C(=O)N1c1ccc(Cc2ccncc2)cc1 (stereo unspecified)
- IC50 [7]: 1.35 µM
- IC50 [8]: 5.12 µM
- IC50 [9]: 4.13 µM
- Activity [10]: Non-Toxic
- inhibition at 10 µM [3]: 28.2%

Compound: C[C@@]12C(=O)OC(=O)[C@]1(C)[C@H]1CC[C@@H]2O1 [CANTHARIDIN]
- Activity [11]: Toxic
- Activity [5]: inactive
- Activity [12]: Toxic
- Activity [13]: Toxic

Compound: C[C@@]12C(=O)N(c3ccc(Cc4ccncc4)cc3)C(=O)[C@]1(C)[C@H]1CC[C@@H]2O1 [listing 2 of 2 here]
- IC50 [7]: 8.47 µM
- Activity [11]: Non-Toxic
- Activity [14]: Non-Toxic
- IC50 [8]: 4.32 µM
- inhibition at 20 µM [15]: 57%
- Activity [12]: Non-Toxic
- IC50 [9]: 3.18 µM
- Activity [16]: Non-Toxic
- inhibition at 10 µM [3]: 49.3%

Compound: CN1CCN(C(=O)C2CCCCC2C(=O)Nc2ccc(Cc3ccncc3)cc2)CC1 (stereo unspecified)
- inhibition at 10 µM [3]: 17.2%

Compound: CN1CCN(C(=O)C2C3C=CC(O3)C2C(=O)Nc2ccc(Cc3ccncc3)cc2)CC1 (stereo unspecified)
- inhibition at 10 µM [3]: 29.8%

Source: ChEMBL document CHEMBL5356972, “Design and synthesis of cantharidin derivative DCZ5418 as a TRIP13 inhibitor with anti-multiple myeloma activity in vitro and in vivo” (Bioorg Med Chem Lett, 2024)
